Values belong to the compound of their own block, whether it stands above or below them.
Tested on: 521955-158-R2-J5-PDC complex spheroid viability
Experiment: Anticancer human tumor 521955-158-R2-J5-PDC patient-derived pancreatic carcinoma cell line growth inhibition [GQUAD]
Conditions: for IC50: curve of first compound; for viability, T/C: stronger effect = lower value
In short: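 Viability of tumor cells grown as complex spheroids with endothelial and stromal cells, exposed to drug combinations. Top concentration at or near clinical Cmax (else 10 microM), diluted in half-log increments.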

[1] = second compound 0.0316 µM, first compound 0.0316 µM
[2] = second compound 0.0316 µM, first compound 0.1 µM
[3] = second compound 0.0316 µM, first compound 0.316 µM
[4] = second compound 0.0316 µM, first compound 1 µM
[5] = second compound 0.0316 µM, first compound 3.16 µM
[6] = second compound 0.0316 µM, first compound 10 µM
[7] = second compound 0.1 µM, first compound 0.0316 µM
[8] = second compound 0.1 µM, first compound 0.1 µM
[9] = second compound 0.1 µM, first compound 0.316 µM
[10] = second compound 0.1 µM, first compound 1 µM
[11] = second compound 0.1 µM, first compound 3.16 µM
[12] = second compound 0.1 µM, first compound 10 µM
[13] = second compound 0.316 µM, first compound 0.0316 µM
[14] = second compound 0.316 µM, first compound 0.1 µM
[15] = second compound 0.316 µM, first compound 0.316 µM
[16] = second compound 0.316 µM, first compound 1 µM
[17] = second compound 0.316 µM, first compound 3.16 µM
[18] = second compound 0.316 µM, first compound 10 µM
[19] = second compound 1 µM, first compound 0.0316 µM
[20] = second compound 1 µM, first compound 0.1 µM
[21] = second compound 1 µM, first compound 0.316 µM
[22] = second compound 1 µM, first compound 1 µM
[23] = second compound 1 µM, first compound 3.16 µM
[24] = second compound 1 µM, first compound 10 µM
[25] = second compound 3.16 µM, first compound 0.0316 µM
[26] = second compound 3.16 µM, first compound 0.1 µM
[27] = second compound 3.16 µM, first compound 0.316 µM
[28] = second compound 3.16 µM, first compound 1 µM
[29] = second compound 3.16 µM, first compound 3.16 µM
[30] = second compound 3.16 µM, first compound 10 µM
[31] = second compound 10 µM, first compound 0.0316 µM
[32] = second compound 10 µM, first compound 0.1 µM
[33] = second compound 10 µM, first compound 0.316 µM
[34] = second compound 10 µM, first compound 1 µM
[35] = second compound 10 µM, first compound 3.16 µM
[36] = second compound 10 µM, first compound 10 µM
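Note: spheroids exposed to agents for one week before reading.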
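Throughout, for viability, T/C: 100% = DMSO vehicle control viability.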

IC50 (second compound 0.0316 µM): > 10000 nM | IC50 (second compound 0.1 µM): > 10000 nM | IC50 (second compound 0.316 µM): < 31.6 nM | IC50 (second compound 1 µM): < 31.6 nM | IC50 (second compound 3.16 µM): < 31.6 nM | IC50 (second compound 10 µM): < 31.6 nM
SMILES: Cc1cccc(N(C)C(=O)C2C(O)CCN2c2nc(C)cc(C(F)(F)F)c2C#N)c1 (stereo unspecified) + Cc1cnc(CNC(=O)c2c(=O)c3ccc(N4CCCN(C)CC4)nc3n3c2sc2ccccc23)cn1
viability, T/C [1]: 96.8% | viability, T/C [2]: 75% | viability, T/C [3]: 92.8% | viability, T/C [4]: 78.9% | viability, T/C [5]: 101% | viability, T/C [6]: 89.6% | viability, T/C [7]: 54.9% | viability, T/C [8]: 66.2% | viability, T/C [9]: 71.5% | viability, T/C [10]: 62.2% | viability, T/C [11]: 88.7% | viability, T/C [12]: 74.6% | viability, T/C [13]: 43.7% | viability, T/C [14]: 49.9% | viability, T/C [15]: 40.9% | viability, T/C [16]: 43.7% | viability, T/C [17]: 46.5% | viability, T/C [18]: 38.2% | viability, T/C [19]: 23.6% | viability, T/C [20]: 22.5% | viability, T/C [21]: 22.7% | viability, T/C [22]: 24.4% | viability, T/C [23]: 20.9% | viability, T/C [24]: 22.9% | viability, T/C [25]: 19.1% | viability, T/C [26]: 22.3% | viability, T/C [27]: 19.8% | viability, T/C [28]: 22.8% | viability, T/C [29]: 20.6% | viability, T/C [30]: 20.1% | viability, T/C [31]: 20.7% | viability, T/C [32]: 19.2% | viability, T/C [33]: 21.5% | viability, T/C [34]: 20.2% | viability, T/C [35]: 24.7% | viability, T/C [36]: 20.2%

IC50 (second compound 0.0316 µM): > 316 nM | IC50 (second compound 0.1 µM): 316 nM | IC50 (second compound 0.316 µM): < 0.999 nM | IC50 (second compound 1 µM): < 0.999 nM | IC50 (second compound 3.16 µM): < 0.999 nM | IC50 (second compound 10 µM): < 0.999 nM
SMILES: Cn1ncnc1[C@H]1c2n[nH]c(=O)c3cc(F)cc(c23)N[C@@H]1c1ccc(F)cc1 + Cc1cnc(CNC(=O)c2c(=O)c3ccc(N4CCCN(C)CC4)nc3n3c2sc2ccccc23)cn1
viability, T/C (second compound 0.0316 µM, first compound 0.000999 µM): 85.8% | viability, T/C (second compound 0.0316 µM, first compound 0.00316 µM): 70.8% | viability, T/C (second compound 0.0316 µM, first compound 0.00999 µM): 67.1% | viability, T/C [1]: 62% | viability, T/C (second compound 0.0316 µM, first compound 0.0999 µM): 53.9% | viability, T/C [3]: 57.5% | viability, T/C (second compound 0.1 µM, first compound 0.000999 µM): 62.3% | viability, T/C (second compound 0.1 µM, first compound 0.00316 µM): 77.7% | viability, T/C (second compound 0.1 µM, first compound 0.00999 µM): 54.8% | viability, T/C [7]: 48.2% | viability, T/C (second compound 0.1 µM, first compound 0.0999 µM): 54.2% | viability, T/C [9]: 55.5% | viability, T/C (second compound 0.316 µM, first compound 0.000999 µM): 44.1% | viability, T/C (second compound 0.316 µM, first compound 0.00316 µM): 48.6% | viability, T/C (second compound 0.316 µM, first compound 0.00999 µM): 44.7% | viability, T/C [13]: 34.2% | viability, T/C (second compound 0.316 µM, first compound 0.0999 µM): 31.3% | viability, T/C [15]: 24.3% | viability, T/C (second compound 1 µM, first compound 0.000999 µM): 26.8% | viability, T/C (second compound 1 µM, first compound 0.00316 µM): 25.1% | viability, T/C (second compound 1 µM, first compound 0.00999 µM): 23.1% | viability, T/C [19]: 20% | viability, T/C (second compound 1 µM, first compound 0.0999 µM): 21% | viability, T/C [21]: 16.6% | viability, T/C (second compound 3.16 µM, first compound 0.000999 µM): 16% | viability, T/C (second compound 3.16 µM, first compound 0.00316 µM): 19.6% | viability, T/C (second compound 3.16 µM, first compound 0.00999 µM): 20.8% | viability, T/C [25]: 20.4% | viability, T/C (second compound 3.16 µM, first compound 0.0999 µM): 15.3% | viability, T/C [27]: 14% | viability, T/C (second compound 10 µM, first compound 0.000999 µM): 20.7% | viability, T/C (second compound 10 µM, first compound 0.00316 µM): 15.7% | viability, T/C (second compound 10 µM, first compound 0.00999 µM): 21.8% | viability, T/C [31]: 19.8% | viability, T/C (second compound 10 µM, first compound 0.0999 µM): 15.7% | viability, T/C [33]: 17.2%

IC50 (second compound 0.0316 µM): > 10000 nM | IC50 (second compound 0.1 µM): 2860 nM | IC50 (second compound 0.316 µM): < 31.6 nM | IC50 (second compound 1 µM): < 31.6 nM | IC50 (second compound 3.16 µM): < 31.6 nM | IC50 (second compound 10 µM): < 31.6 nM
SMILES: O=C(c1cc(Cc2n[nH]c(=O)c3ccccc23)ccc1F)N1CCN(C(=O)C2CC2)CC1 + Cc1cnc(CNC(=O)c2c(=O)c3ccc(N4CCCN(C)CC4)nc3n3c2sc2ccccc23)cn1
viability, T/C [1]: 83.5% | viability, T/C [2]: 56% | viability, T/C [3]: 77.1% | viability, T/C [4]: 64.4% | viability, T/C [5]: 75.4% | viability, T/C [6]: 59.7% | viability, T/C [7]: 60.3% | viability, T/C [8]: 63.5% | viability, T/C [9]: 59.7% | viability, T/C [10]: 52.9% | viability, T/C [11]: 51.8% | viability, T/C [12]: 32.5% | viability, T/C [13]: 35.1% | viability, T/C [14]: 50% | viability, T/C [15]: 37.9% | viability, T/C [16]: 36.9% | viability, T/C [17]: 30.8% | viability, T/C [18]: 24.1% | viability, T/C [19]: 18% | viability, T/C [20]: 19.9% | viability, T/C [21]: 22.8% | viability, T/C [22]: 23.9% | viability, T/C [23]: 21.1% | viability, T/C [24]: 16.1% | viability, T/C [25]: 16.6% | viability, T/C [26]: 19.6% | viability, T/C [27]: 21.1% | viability, T/C [28]: 15.9% | viability, T/C [29]: 16.5% | viability, T/C [30]: 13.9% | viability, T/C [31]: 21.2% | viability, T/C [32]: 18.9% | viability, T/C [33]: 18.1% | viability, T/C [34]: 18.2% | viability, T/C [35]: 16.7% | viability, T/C [36]: 12.1%
